Results taken from patent publication US20250041277A1, “METHODS AND DOSING REGIMENS COMPRISING A CDK2 INHIBITOR AND A CDK4 INHIBITOR FOR TREATING CANCER” (PFIZER INC., priority 2021, published 2025).

How the values were obtained:
[1] = test system: NCI-H1792 lung adenocarcinoma (LUAD) cells; experiment: Spheroid growth inhibition (SGI) assay, NCI-H1792; type: cell-based; settings: NCI-H1792 spheroids; 30 nM palbociclib, 300 nM PF-07220060, 300 nM PF-07104091; 14 days
Procedure: NCI-H1792 and NCI-H23 lung adenocarcinoma (LUAD) cells lines were obtained from ATCC and maintained in RPMI 1640 medium supplemented with 10% fetal bovine serum and penicillin-streptomycin as per ATCC guidelines. Cells were maintained in humidified incubator at 37° C. with 5% CO2.
Spheroid assays were performed in 96 well ultralow attachment plates (ULA-96U) from Nexcelom & Thermo Fisher Scientific. […] To aid spheroid formation, dispensed cells were centrifuged at 220×g for 6 minutes in the ultralow attachment plates and allowed to form compact spheroids for 4 days prior to the initiation of treatment. […] DMSO (0.01%) was used as the vehicle control. DMSO and all compounds were diluted in cell medium. Medium and compounds were replenished twice per week, with 3 and 4-day intervals. Replenishment was executed by aspirating 150 μL of medium per well without disturbing the spheroid and then adding the same volume of premixed medium/compound solution to spheroids. Spheroid diameter was quantified immediately following each medium change twice a week (on every 3rd or 4th day) throughout the duration of the assay.
Average diameters of tumor spheroids were plotted in GraphPad Prism 8 and the AUC calculated. AUC baseline was determined by the average tumor spheroid diameter at Day 0 in the vehicle (DMSO) controls. Spheroid growth inhibition, or SGI, was calculated as follows: SGI=(1−AUC treatment/AUC DMSO)×100%. SGI for all treatment arms was derived at the timepoint when the vehicle (DMSO) treated spheroids reach their maximal diameter (usually close to 1 mm but this can differ among cell lines); this corresponds to the last time point taken for the vehicle (DMSO) treated spheroids. SEM was calculated based on n=10 to 12 wells per test group.
Growth of lung adenocarcinoma multicellular tumor spheroids (MCTS) was monitored over time to assess: (i) amplitude of response (SGI) and (ii) duration of response to the CDK4 inhibitor PF-07220060 as a single agent, and in combination with the CDK2 inhibitor PF-07104091.

MCF7 breast cancer model = experiment: In vivo efficacy, HR+/HER2− MCF7 breast cancer model (Example 4); parameters: species or system NSG mice; settings: MCF7, Day 29; PO BID: PF-07104091 120 mpk, PF-07220060 60 mpk, PF-06873600 30 mpk, palbociclib 10 mpk; fulvestrant 10 mpk SC
Procedure: (§1) Female NSG mice (Jackson Lab) were subcutaneously implanted with fragment (27 mm^3 to 64 mm^3 size) into the dorsal region. All mice for HCC1428, MCF7 and ST941 PBR studies were supplemented with 8.5 μg/mL estradiol water (β-Estradiol Sigma-Aldrich, cat #E2758-5G) and gave ad libitum till end of study. For the in vivo efficacy studies, tumor volume and body weights were measured twice a week. Tumor volume was calculated using the [(Length×Width×Width)/2)] formula. TGI was calculated as 100*(1−ΔT/ΔC). The ΔC (ΔT) was obtained by subtracting the mean tumor burden in the vehicle (treated) group on the first day of treatment (Day 0) from the mean tumor burden in vehicle (treated) group on the assessment day. Statistical analysis was performed using ANCOVA when the mean tumor volume in vehicle treated mice reached tumor cutoff size.
(§2) The MCF7 model was established by implanting donor tumor fragments into recipient mice. To establish the MCF7 donor mice, tumor cells (5×10^6 cell/mouse with 50% Cultrex® Basement Membrane Matrix) were subcutaneously implanted in female NSG mice. Once reaching a range of 700 to 800 mm^3, donor tumors were subsequently transplanted into secondary recipient mice for a study expansion. […] PF-07104091 (lot 022), PF-07220060 (lot CPo126812-01-SY-5700-01), PF-06873600 (lot 022) and PD-0332991 (lot GR08498) were administered (PO) BID (7 hr apart) while fulvestrant (lot 20160224-2) at 10 mg/kg, SC twice in the first week, then weekly afterwards. All mice received treatment continuously until Day 29. TGI was assessed on Day 29 post first dose

[2] = test system: MCF7 breast cancer cell line; experiment: Cell proliferation combination assay (Loewe Volume, CI), MCF7; type: cell-based, Human; settings: MCF7 cells; for Best CI: Best CI Level 70
Procedure: The combination effects of PF-07104091 and PF-07220060 were evaluated in a cell proliferation assay with MCF7 and T47D BC cell lines.
Drug combinations were analyzed using the Dose Equivalence Principle, and the Loewe Volume score. When modeling synergy using the Dose Equivalence Principle, the Loewe Volume score for the combination compounds should be greater than the compound self-cross controls, and the Combination Index (C) score for the combination compounds should be less than compound self-cross controls. […] The isobolograms set to an anti-proliferation threshold at 70% confirmed a synergistic response.

HCC2935 = experiment: Combinatorial activity in LUAD cell line HCC2935; type: cell-based; settings: Homo sapiens; HCC2935, WT; single agent; read-out: (nM) s.a.
Procedure: (§3) Combinatorial activity of PF-07104091 and PF-07220060 was assessed in LUADs as single agents (s.a.) or in combination.

ABC1 = experiment: Combinatorial activity in LUAD cell line ABC1; type: cell-based; settings: Homo sapiens, ABC-1; ABC1, WT; single agent; read-out: (nM) s.a.
Procedure: as §3

NCI-H2347 = experiment: Combinatorial activity in LUAD cell line NCI-H2347; type: cell-based; settings: Homo sapiens; NCI-H2347, KRAS L19F; single agent; read-out: (nM) s.a.
Procedure: as §3

[3] = test system: HCC1428 breast cancer model; experiment: In vivo efficacy, HR+/HER2− HCC1428 breast cancer model (Example 4); parameters: species or system NSG mice; settings: HCC1428, Day 42; PO BID: PF-07104091 120 mpk, PF-07220060 60 mpk, PF-06873600 30 mpk, palbociclib 10 mpk; fulvestrant 10 mpk SC
Procedure: as §1
as §2, with “The HCC1428” for “The MCF7”, “implanting passage 1” for “implanting donor”, “the HCC1428” for “the MCF7”, “Day 42.” for “Day 29.”, “Day 42” for “Day 29”, “first dose.” for “first dose”

IC50 (HCC2935) | IC50 (ABC1) | IC50 (NCI-H2347) | SMILES | SGI (%) [1] | TGI % (MCF7 breast cancer model) | Loewe Volume [2] | Best CI [2] | TGI % [3]
280 nM | 716 nM | 364 nM | COCc1cc(C(=O)Nc2cc([C@H]3CC[C@@H](OC(=O)NC(C)C)C3)[nH]n2)n(C)n1 [PF-07104091, (1R,3S)-3-[3-({[3-(methoxymethyl)-1-methyl-1H-pyrazol-5-yl]carbonyl}amino)-1H-pyrazol-5-yl]cyclopentyl propan-2-ylcarbamate] | 12% | 60% | −0.08 | 1.04 | 79%
141 nM | 408 nM | 70 nM | CC(C)n1c(C(C)(C)O)nc2c(F)cc(-c3nc(N[C@@H]4CCOC[C@H]4O)ncc3Cl)cc21 [PF-07220060, 1,5-anhydro-3-({5-chloro-4-[4-fluoro-2-(2-hydroxypropan-2-yl)-1-(propan-2-yl)-1H-benzimidazol-6-yl]pyrimidin-2-yl}amino)-2,3-dideoxy-D-threo-pentitol] | 81% | 79% | −0.02 | 1.06 | 70%
